Laboratory results from US20250144067A1, “PERSONALIZED STARVATION THERAPY FOR CANCER” (Faeth Therapeutics, Inc., priority 2021, published 2025).
Where a name gives a salt, the structure may show the parent alone. Read-outs that look alike come from different tables or passages of the source.

Key:
[1] = system: NCI-H292 lung cancer cells; test: FDA drug screening, complete media vs cholesterol-free media without statin (TABLE 1); format: cell-based, human
[2] = system: NCI-H292 lung cancer cells; test: FDA drug screening, complete media vs cholesterol-free media with simvastatin (TABLE 2); format: cell-based, human
[3] = Complete minus Cholesterol-free, greater than 0 enhanced anti-cancer activity, about 0 neutral, below 0 antagonists
[4] = NCI-H292 cells in cholesterol-free media without statin
[5] = NCI-H292 cells in complete media
[6] = NCI-H292 cells, FDA drug library screen, cholesterol-free media with simvastatin 0.04 μM
[7] = NCI-H292 cells, FDA drug library screen, complete media
[8] = complete media vs cholesterol-free media + simvastatin (0.04 μM), >0 enhanced anti-cancer activity, about 0 neutral, <0 antagonist
[9] = NCI-H292 cells, cholesterol-free media with simvastatin 0.04 μM, cell growth value in FDA drug screen
[10] = NCI-H292 cells, complete media, cell growth value in FDA drug screen
[11] = complete media minus cholesterol-free media + simvastatin, >0 enhanced anti-cancer activity, about 0 neutral, <0 antagonist
[12] = NCI-H292 cells, cholesterol-free media without statin, FDA drug library screen
[13] = NCI-H292 cells, complete media, FDA drug library screen
[14] = complete vs cholesterol-free media, >0 enhanced anti-cancer activity, about 0 neutral, <0 antagonist
[15] = NCI-H292 cells, FDA library drug in cholesterol-free media with simvastatin 0.04 μM
[16] = NCI-H292 cells, FDA library drug in complete media
[17] = Complete minus Cholesterol-free, >0 enhanced anti-cancer activity, about 0 neutral, <0 antagonist
[18] = NCI-H292 cells, cholesterol-free media without statin
[19] = complete vs cholesterol-free media, greater than 0 enhanced anti-cancer activity, about 0 neutral, below 0 antagonists
[20] = NCI-H292 cells, drug in cholesterol-free media with simvastatin 0.04 μM
[21] = NCI-H292 cells, drug in complete media

SMILES: COC(=O)C1=C(C)NC(C)=C(C(=O)OC)C1c1ccccc1[N+](=O)[O-] [Nifedipine]
- Difference [1, 3]: −0.53
- Cholesterol-free [1, 4]: 1.45
- Complete [1, 5]: 0.9229
- Cholesterol-free media + simvastatin (0.04 μM) [2, 6]: 1.819
- Complete Media [2, 7]: 1.696
- Difference [2, 8]: −0.12

SMILES: Cc1c(NC(=O)c2cccnc2)c(=O)n(-c2ccccc2)n1C [Nifenazone]
- Difference [1, 3]: −0.66
- Cholesterol-free [1, 4]: 1.466
- Complete [1, 5]: 0.8088
- Cholesterol-free media + simvastatin (0.04 μM) [2, 9]: 0.9965
- Complete Media [2, 10]: 1.032
- Difference [2, 11]: 0.04

SMILES: O=C(O)c1cccnc1Nc1cccc(C(F)(F)F)c1 [Niflumic acid]
- Cholesterol-free [1, 12]: 0.872
- Complete [1, 13]: 1.486
- Difference [1, 14]: 0.61
- Cholesterol-free media + simvastatin (0.04 μM) [2, 15]: 0.9955
- Complete Media [2, 16]: 0.2879
- Difference [2, 8]: −0.71

SMILES: CSCC1CN(/N=C/c2ccc([N+](=O)[O-])o2)C(=O)O1 (centres unmarked) [Nifuratel]
- Difference [1, 17]: −0.23
- Cholesterol-free [1, 18]: 1.253
- Complete ([1]; NCI-H292 cells, complete media): 1.019
- Cholesterol-free media + simvastatin (0.04 μM) [2, 15]: 1.397
- Complete Media [2, 16]: 1.12
- Difference [2, 8]: −0.28

SMILES: O=C(N/N=C/c1ccc([N+](=O)[O-])o1)c1ccc(O)cc1 [Nifuroxazide]
- Difference [1, 17]: −0.04
- Cholesterol-free [1, 12]: 0.9553
- Complete [1, 13]: 0.9139
- Cholesterol-free media + simvastatin (0.04 μM) [2, 9]: 1.161
- Complete Media [2, 10]: 1.265
- Difference [2, 11]: 0.10

SMILES: CC1CS(=O)(=O)CCN1/N=C/c1ccc([N+](=O)[O-])o1 (centres unmarked) [Nifurtimox]
- Cholesterol-free [1, 18]: 1.443
- Complete ([1]; NCI-H292 cells, complete media): 1.102
- Difference [1, 19]: −0.34
- Cholesterol-free media + simvastatin (0.04 μM) [2, 20]: 1.357
- Complete Media [2, 21]: 1.111
- Difference [2, 8]: −0.25

SMILES: CCN(CC)C(=O)c1cccnc1 [Nikethamide]
- Difference ([1]; Complete minus Cholesterol-free, greater than 0 enhanced anti-cancer activity, about 0 neutral, below 0 antagonist): −0.18
- Cholesterol-free ([1]; NCI-H292 cells, FDA drug library screen, cholesterol-free media without statin): 1.071
- Complete [1, 7]: 0.8953
- Cholesterol-free media + simvastatin (0.04 μM) [2, 6]: −0.004932
- Complete Media [2, 7]: 1.43
- Difference [2, 11]: 1.44

SMILES: Cc1cn(-c2cc(NC(=O)c3ccc(C)c(Nc4nccc(-c5cccnc5)n4)c3)cc(C(F)(F)F)c2)cn1 [Nilotinib]
- Cholesterol-free [1, 18]: 1.511
- Complete ([1]; NCI-H292 cells, complete media): 1.113
- Difference [1, 19]: −0.40
- Cholesterol-free media + simvastatin (0.04 μM) [2, 9]: 0.9437
- Complete Media [2, 10]: 0.9791
- Difference [2, 11]: 0.04

SMILES: CC1(C)NC(=O)N(c2ccc([N+](=O)[O-])c(C(F)(F)F)c2)C1=O [Nilutamide]
- Difference [1, 3]: −0.63
- Cholesterol-free [1, 4]: 1.565
- Complete [1, 5]: 0.9342
- Cholesterol-free media + simvastatin (0.04 μM) [2, 15]: 1.474
- Complete Media [2, 16]: 1.003
- Difference [2, 8]: −0.47

SMILES: COC(=O)C1=C(C#N)NC(C)=C(C(=O)OC(C)C)C1c1cccc([N+](=O)[O-])c1 (centres unmarked) [Nilvadipine]
- Difference [1, 17]: −0.27
- Cholesterol-free [1, 18]: 1.059
- Complete ([1]; NCI-H292 cells, complete media): 0.7875
- Cholesterol-free media + simvastatin (0.04 μM) [2, 20]: 1.579
- Complete Media [2, 21]: 1.393
- Difference [2, 8]: −0.19

SMILES: CS(=O)(=O)Nc1ccc([N+](=O)[O-])cc1Oc1ccccc1 [Nimesulide]
- Difference [1, 17]: −0.26
- Cholesterol-free [1, 18]: 1.157
- Complete ([1]; NCI-H292 cells, complete media): 0.8983
- Cholesterol-free media + simvastatin (0.04 μM) [2, 6]: 0.9827
- Difference [2, 11]: 0.17

SMILES: COCCOC(=O)C1=C(C)NC(C)=C(C(=O)OC(C)C)C1c1cccc([N+](=O)[O-])c1 (centres unmarked) [Nimodipine]
- Cholesterol-free [1, 18]: 1.269
- Complete ([1]; NCI-H292 cells, complete media): 0.8907
- Difference [1, 19]: −0.38
- Cholesterol-free media + simvastatin (0.04 μM) ([2]; NCI-H292 cells, cholesterol-free media with simvastatin 0.04 μM, FDA drug library screen (TABLE 2)): 1.215
- Complete Media ([2]; NCI-H292 cells, complete media, FDA drug library screen (TABLE 2)): 1.187
- Difference ([2]; complete media minus cholesterol-free media + simvastatin (0.04 μM), >0 enhanced anti-cancer activity, about 0 neutral, <0 antagonist): −0.03

SMILES: O=[N+]([O-])c1cncn1CCN1CCOCC1 [Nimorazole]
- Cholesterol-free [1, 12]: 0.576
- Complete [1, 13]: 0.9886
- Difference [1, 14]: 0.41
- Cholesterol-free media + simvastatin (0.04 μM) [2, 20]: 1.022
- Complete Media [2, 21]: 0.8004
- Difference [2, 8]: −0.22

SMILES: Cc1ncc(CNC(=O)N(CCCl)N=O)c(N)n1 [Nimustine (hydrochloride)]
- Cholesterol-free [1]: 1.02
- Complete [1]: 1.016
- Difference [1]: 0.00
- Cholesterol-free media + simvastatin (0.04 μM) [2]: 1.194
- Complete Media [2]: 1.026
- Difference [2]: −0.17
